From patent US20220002700A1, “COMPUTATIONALLY-OPTIMIZED ACE2 PEPTIDES FOR COMPETITIVE INTERCEPTION OF SARS-CoV-2” (priority 2020, published 2022)
Where no end group is shown, it is not given here.

Key:
[1] = target: RBD-sfGFP (SARS-CoV-2 RBD fused to superfolder GFP) (Severe acute respiratory syndrome coronavirus 2, UniProt P0DTC2)
[2] = test system: S protein-pseudotyped virus; type: cell-based, SARS-CoV-2

Row | Substance | reduction (depletion) of GFP+ cells [1] | degradation in TRIM21 assay compared with other architectures [1] | difference in pseudoviral infection competency with addition of exogenous peptide [2]
1 | QAKTFLDKFNHEAEDLFYQSSLA [sACE2 peptide variant 2] | ~20% | – | –
2 | 23-mer (A2N) (QNKTFLDKFNHEAEDLFYQSSLA; also: fused to a dimerising Fc or GST) | over 50% | improving on both the sACE2 and 23-mer architecture as well as that of a previously optimized full- length mutant, sACE2v2.4 | Minimal difference
